A word on the melting point: it is the temperature, or range, at which the solid turns liquid. In turn, `COC(=O)Cc1ccc(OC)c([N+](=O)[O-])c1` came in with a melting point of 101 to 102 °C. In the case of `CCCCCCCc1ccc(-c2cnc([C@H]3CC[C@H](C#N)CC3)nc2)cc1` it was 83.5 °C; in that of `OC1CCSC(=S)N1c1ccc(Cl)cn1` (stereo not given), 136 to 137 °C; in that of `CN1CCN(c2cc(N)ccc2F)CC1`, 155 to 156 °C. `CC(C)(C)OC(=O)NC12CCC1CN(Cc1ccccc1)C2` (stereo not given) returned a melting point of 69 to 70 °C. In the case of `CN(C)CCc1ccc(OCCCNc2nc(N)nn2C)cc1` it was 125 to 126 °C; in that of `N#Cc1cnc2cc(F)c(OCCN3CCOCC3)cc2c1Cl`, 163 to 164 °C; in that of `Nc1ccc(Cl)cc1C(=O)C(F)(F)F`, 93 to 94 °C. `Cc1nc(Cl)c(C(=O)O)cc1Cl` showed a melting point of 123 to 138 °C. Under `C=CCOC(=O)c1ccc(NC(=O)C(=NO)c2ccc3c(c2)C(C)(C)CCC3(C)C)cc1O` stands 108 to 109 °C; under `COc1ccc(S(=O)(=O)n2ccc3ccnc(-c4ccncc4)c32)cc1`, 193 to 194 °C; under `CNC(C)Cn1nc(Cl)c2cc3ccc(OC)cc3nc21` (stereo not given), 98 to 100 °C. Take `O=c1[nH]c(Nc2ccccc2)nc2c1ncn2CCO`: the melting point is 338 to 339 °C. Regarding `CCCCC(CC)C(=O)NCCCCn1cnc2c(N)nc3ccccc3c21` (stereo not given), the melting point was 163 to 164 °C.

`O=C1OC(Cl)(Cl)c2c(Cl)c(Cl)c(Cl)c(Cl)c21` showed a melting point of 136 to 138 °C.

As for `OC1CN(C(=S)Nc2ccccc2)Cc2sccc21` (stereo not given), the melting point amounted to 168 °C. Under `NS(=O)(=O)c1cc(C(=O)c2ccccc2)ccc1Cl` stands 183 to 185 °C. Molecule `CCOC(Nc1ccc(C(=O)O)cc1)C(=O)c1ccc(-c2ccccc2)cc1` (stereo not given) yielded a melting point of 179 °C. Molecule `COC(=O)NC1=NC(c2ccc3ccccc3c2)CN1` (stereo not given) yielded a melting point of 227 to 228 °C. Consider `N#Cc1c[nH]cc1-c1ccc(F)c(Cl)c1F`, for which the melting point was 218 to 219 °C.

Regarding `O=C(c1ccc(O)cc1)c1sc2ccccc2c1-c1ccccc1`, the melting point fell in the range of 204 to 205 °C. The molecule `COc1cn(-c2ccc(-n3c(=O)ccn3C(F)F)cc2F)nc(-c2ccnn2-c2ccccc2)c1=O` returned a melting point of 161 to 163 °C. For `O=c1nc(N2CCOCC2)ccn1C1OC(CO)C(O)C1O` (stereo not given), the melting point was 106 to 108 °C. Under `COCCn1c(Oc2ccc(-n3c4ncccc4n4ccnc34)cc2)nc2cccnc21` stands 178 to 182 °C; under `O=C1CC(c2ccccc2)N(C(=O)Cl)N1` (stereo not given), 146 °C; under `CCSc1ccc(C2=NC[C@@H](OC(=O)Nc3ccccc3)[C@H](c3ccccc3)O2)cc1` (racemic), 70 °C. Under `CC1(C)CCSc2cccc(O)c21` stands 48 °C. Regarding `COC(=O)C1C(c2ccccc2)OC(=O)N1C(c1ccccc1)c1ccccc1` (stereo not given), the melting point is 99 to 102 °C. In the case of `O=C(O)C1Oc2ccc(Cl)cc2C(c2ccccc2)(c2ccccc2)O1` (stereo not given) it was 226 °C; in that of `O=C(c1ccccc1)c1ccc[nH]1`, 76 to 77 °C; in that of `CS(=O)(=O)c1ccc(C(=O)O)c(Cl)c1-c1nccs1`, 288 to 290 °C.

The molecule `O=C(CC1CCN(Cc2ccccc2)CC1)c1ccc(CO)cc1` had a melting point of 154 to 155 °C. As to `Cc1ccc(S(=O)(=O)N[C@H](COS(=O)(=O)c2ccc(C)cc2)CC(C)C)cc1`, the melting point was in the range of 99 to 101 °C. `N#Cc1ccc(N(Cc2ccc(O)cc2)n2cncn2)cc1-c1ccccc1`: the melting point lay within 169 to 170 °C. Under `CC(C)(C)OC(=O)CNC(=O)c1ccc(N)c(Cl)c1` stands 116 to 117 °C; under `C(=C\c1cc(/C=C/c2ccc3[nH]ccc3c2)n[nH]1)/c1ccc(OCc2ccccn2)cc1`, 95 to 102 °C; under `O=C(O)Cc1ccc(-c2ccc(O)cc2)c(F)c1`, 208 to 210 °C. Under `COc1ccc(C2C(C#N)=C(N)OC3=C2C(=O)CC(c2cccc4ccccc24)C3)cc1` (stereo not given) stands 194 to 197 °C; under `CC(C)[C@H](O)C(=O)NCCc1ccccc1`, 100 °C. Regarding `Cc1cc(CNC(=O)c2cc(-n3cnn(Cc4ccc(F)cc4)c3=O)n[nH]2)[nH]n1`, the melting point was in the range of 239 to 241 °C. The molecule `CCn1cc(C(=O)O)c(=O)c2c(F)c(F)c(N3CCNC(c4ccsc4)C3)c(F)c21` (stereo not given) returned a melting point of 221 to 222 °C. Turning to `CCCCCCOc1cc(C=O)c(OCCCCCC)cc1C=O`, the melting point lay in the range of 74.5 to 76 °C. As to `Clc1cc(N2CCC(N3CCN(c4cccc5[nH]ccc45)CC3)CC2)c2ncccc2c1`, the melting point is 224 °C. Under `N#CC1CCN(c2ccc3c(NC(=O)CC4CCCCC4)c(Cl)ccc3n2)CC1` stands 235 to 237 °C; under `FC(F)(F)c1cccc(-c2ccn3cnnc3n2)c1`, 202 to 203 °C; under `NC(=O)CCN(CCC(N)=O)Cc1ccccc1`, 103 to 106 °C. The molecule `O=Cc1ccc(Sc2nc3c(F)c(F)c(F)cc3[nH]2)o1` gave a melting point of 152 °C. As to `Cc1nnc(C(C)C)n1C1CC2CCC(C1)N2CCC(NC(=O)C1CCC(F)(F)CC1)c1ccc(NC(=O)COCC(=O)NCCCCCCCN)cc1` (stereo not given), the melting point was 100 to 102 °C. In the case of `NC(=O)NCc1cccc(-c2csc(N=C(N)N)n2)c1` it was 230 to 232 °C; in that of `CC1=CC(c2ccc(F)c(Cl)c2)C2=C(CCCC2=O)N1` (stereo not given), 164 to 167 °C; in that of `CC(C)Oc1cc(-n2c(=O)cc(C(F)(F)F)n(C)c2=O)c(F)cc1Br`, 79 °C.

On to `CC(C)CCNCC(O)C(CC(C)C)NC(=O)C(Cc1c[nH]cn1)NC(=O)C(CC(=O)NCCc1ccccc1)Cc1cccc2ccccc12` (mixture of isomers), for which the melting point lay in the range of 92 to 97 °C. In the case of `CCCNC(=O)CSc1nc(-c2ccccc2)c(-c2ccccc2)[nH]1` it was 183 to 185 °C. In the case of `C=COCCONC(=O)c1cc(Br)c(F)c(F)c1Nc1ccc(I)cc1F` it was 128 to 130 °C; in that of `N#Cc1cccc2c1NC(=O)C2c1ncnc2c1cnn2C1CCCCC1` (stereo not given), over 300 °C.

Molecule `CCOC(=O)c1ccc2c(=O)n3cc(C(=O)O)ccc3nc2c1` came in with a melting point of 275 to 324 °C.

For the molecule `CC1CN(c2ccccc2)N=C1NC(=O)C(F)(F)F` (stereo not given), the melting point was in the range of 142 to 144 °C.

In the case of `CC(C)(C)OC(=O)Nc1ccc(-c2cccc(F)c2F)cc1N`, the melting point amounted to 78 °C. As for `COc1cccc2c(=O)n3c(cc12)SCCC3`, the melting point fell in the range of 117 to 118 °C. Regarding `CCOC(=O)C(=CNC1CC1)C(=O)c1c(F)cc(F)c(F)c1C`, the melting point fell in the range of 69 to 72 °C. Under `Cc1ccc(S(=O)(=O)N2CCCC2c2ccc(Cl)cc2)cc1` (racemic) stands 121 °C. Under `Cc1cn(-c2cccc(C3=Nc4ccc(-c5ccc(F)cc5)cc4NC(=O)C3)c2)cn1` stands 215 °C; under `O=c1ccn(-c2cc3[nH]c(=O)c(=O)[nH]c3cc2[N+](=O)[O-])cc1[N+](=O)[O-]`, over 300 °C. In the case of `CC1(C)CC(=C(c2ccc(O)cc2)c2ccc(C#CCCO)cc2)CC(C)(C)C1` it was 183 to 184 °C; in that of `COc1cc(NC(=O)Nc2ccc(N3CCN(C(=O)Nc4ccc(OCCO)cc4C(F)(F)F)CC3)cc2)cc(OC)c1`, 209 to 210 °C.

As for `O=C(c1n[nH]c2c(=O)[nH]c3cc(Cl)ccc3c(=O)c12)N(O)Cc1ccccc1`, the melting point fell in the range of 282 to 285 °C.

Consider `O=C1c2c(-c3ccccc3)c3cc(Cl)ccc3n2CCN1CCN1CCCC1`, for which the melting point lay in the range of 134 to 136 °C.

Take `CC(CO)(CO)C(=O)N1CCOCC1`: the melting point lay in the range of 95 to 97 °C. Molecule `CC(C)c1nn(-c2ccc(C(F)(F)F)cn2)cc1CCCCOc1nn(-c2ccccc2)cc1CC(=O)O` yielded a melting point of 119 to 120 °C. `Cc1ccc(C[C@H](NC(=O)[C@@H](NC(=O)OCc2ccccn2)C(C)C)[C@H](O)[C@H](Cc2ccccc2)NC(=O)[C@@H](NC(=O)OCc2ccccn2)C(C)C)cc1` registered a melting point of 195 to 198 °C. Under `CCCOC(Cc1ccc(OCc2nc(C(C)(C)C)oc2C)c2ccccc12)C(=O)O` (stereo not given) stands 169 to 170 °C. Under `O=C(/C=C/c1ccc(O)cc1Cl)CC(=O)/C=C/c1ccc(O)cc1Cl` stands 248 to 254 °C; under `CCOC(=O)c1cn(C2CC2)c2nc3cc(N4CCNC(c5ccc(OC)cc5)C4)c(F)cc3cc2c1=O` (racemic), 199 °C. `CCCOc1ccc(CSc2nc(SC)n(CC)c(=O)c2C)cc1`: the melting point lay in the range of 91 to 93 °C. In the case of `O=C(c1ccc2nonc2c1)N(C1CCOCC1)C1CC1` it was 108 to 109 °C. `OC(c1ccccc1)c1ccc(Nc2nccc(-c3cnc4ccccn34)n2)cc1` (stereo not given) gave a melting point of 213 to 216 °C.

The molecule `CC(C)c1cc(OCCO[Si](C(C)C)(C(C)C)C(C)C)cc2c1C(=O)N(CCl)S2(=O)=O` registered a melting point of 85 to 86 °C.

Molecule `COc1nc2cc([N+](=O)[O-])cc(C=O)c2nc1OC` had a melting point of 147 to 149 °C. Under `CC(C)(C)C1CCC2(CC1)CC(=NO)CO2` (stereo not given) stands 118 °C.

In turn, `Nc1cc2c(Nc3ccc(F)c(Br)c3)ncnc2cn1` displayed a melting point of 269 to 271 °C. Under `COC(=O)c1cc(N)c(N)cc1OC` stands over 300 °C; under `c1cc(Oc2ccc3c(c2)CCN3)ccn1`, 116 to 118 °C. Consider `O=[N+]([O-])c1cc(CO)ccc1Br`, for which the melting point was in the range of 61 to 62 °C. Consider `O=C1Nc2ccc(NCCCc3ccccc3)cc2C12OCCO2`, for which the melting point is 106 to 108 °C. In the case of `C[C@H](NC(=O)c1c[nH]c2ncc(C3CC3)nc12)C(C)(C)O` it was 272 to 274 °C. In turn, `COC(=O)COc1ccc(-c2c(Br)ccc3sc4ccccc4c23)cc1` showed a melting point of 122 °C. Under `COC(=O)Cn1nnc(NC(=O)C2c3ccccc3Oc3ccccc32)n1` stands 243 to 244 °C.

For the molecule `Cc1cc(C2=C(c3cccc(F)c3)C(=O)C(C)(C)O2)ccc1S(C)(=O)=O`, the melting point fell in the range of 138 to 139 °C. `CCCn1nc2c(=O)[nH]c3ccccc3c2c1N` displayed a melting point of 266 to 268 °C. Molecule `CNC(=O)COC(=O)N1CCN(CCOc2ccc(Cl)cc2)CC1` yielded a melting point of 159 to 161 °C.

Values taken from a melting point compilation (Tetko et al.; mined from patent text by program, amines drawn as free bases though some values may be those of a salt).
